Laboratory results from publication PMC6934184, “Selective DNA-PKcs inhibition extends the therapeutic index of localized radiotherapy and chemotherapy” (The Journal of Clinical Investigation, 2019).

Tested on: skin immediately surrounding the tumor
Assay: γH2AX foci in skin surrounding subcutaneous Calu-6 tumor
Format: in vivo, mouse
Settings: 5 hours after 3.3 Gy, 30 mg/kg oral, P = 0.09
Protocol: Subcutaneous non–small cell lung cancer xenografts were generated in CD-1 nude or BALB/c nude mice using A549 and Calu-6 cells, respectively, as previously described ([53]). When tumors reached 100 mm^3, mice were randomized into 4 groups (n = 7–9 per group) to receive (a) vehicle (orally) 30 minutes before mock radiation, (b) NU5455 (30 mg/kg orally) 30 minutes before mock radiation, (c) targeted tumor radiation at a single dose of 3.3 or 10 Gy, or (d) NU5455 (30 mg/kg orally) 30 minutes before 3.3 Gy or 10 Gy targeted tumor radiation. […]
NSCLC subcutaneous xenografts were generated as previously described ( 53). […] Mouse weights and tumor volumes (1/2 x length x width x depth) were measured three times a week.
Targeted radiotherapy in subcutaneous and orthotopic NSCLC xenograft models When subcutaneous xenografts reached 100 mm3, mice were randomized into four groups (n = 7 - 11/group): (i) N-Methyl-2-pyrrolidone (NMP): 30% Encapsin : PEG400 (1:6:3 v/v/v) vehicle p.o. 30 minutes prior to mock radiation. […] The remaining mice were monitored for tumor growth until the sizes of tumo rs reached 400 mm 3 or up to 38 days after initiation of […]
Tissues were fixed in 4% paraformaldehyde (PFA) and paraffin -embedded. […] The percentage of γH2AX and 53BP1 positive nuclei in lung epithelial cells was quantified manually in normal lung samples across 5 randomly-chosen fields of view per […]

CN(C(=O)CN1CCOCC1)c1ccc2sc3c(-c4cccc5c(=O)cc(N6CC7CCC(C6)O7)oc45)cccc3c2c1 [NU5455]
radiation-induced γH2AX foci, fold augmented with NU5455: 1.6 fold
